Measurements as given in ChEMBL document CHEMBL1156829 (Proc Natl Acad Sci U S A, 2008).

What was measured:
Plasmodium falciparum [1] = experiment: NOVARTIS: Inhibition of Plasmodium falciparum 3D7 (drug-susceptible) proliferation in erythrocyte-based infection assay; assay type: functional, organism-based; conditions: Plasmodium falciparum, 3D7
Plasmodium falciparum [2] = experiment: NOVARTIS: Inhibition of Plasmodium falciparum W2 (drug-resistant) proliferation in erythrocyte-based infection assay; assay type: functional, organism-based; conditions: Plasmodium falciparum, W2; read-out: EC50
[3] = NOVARTIS: Cytotoxicity against human hepatocellular carcinoma cell line (Huh7); assay type: toxicity, cell-based, Huh-7; conditions: Huh7 cells (hepatocellular carcinoma cell line)

SMILES | EC50 (Plasmodium falciparum [1]) | EC50 (Plasmodium falciparum [2]) | CC50 [3]
O=C(/C=C/c1ccccc1Cl)Nc1ccc(Oc2ccc3ccccc3c2Cl)c(Cl)c1 | > 958 nM | > 1250 nM | > 10000 nM
COc1cccc(-c2ccc(O)c(CNC3CCN(Cc4ccccc4)CC3)c2)n1 | 376 nM | 163 nM | 5940 nM
CCOc1cccc2c1N(C(=O)c1cccc([N+](=O)[O-])c1)C(C)(C)C(=S)C2=C1SC(C(=O)OC)=C(C(=O)OC)S1 | > 1250 nM | 444 nM | > 10000 nM
Cc1nc(-c2ccccc2)nc(C(=O)N2CCN(C(=O)NC3CCCCC3)C(C)C2)c1C(=O)OC(C)C (stereo not drawn) | 84.4 nM | 41.7 nM | > 100000 nM
C=CC1CN2CCC1CC2[C@H](O)c1ccnc2ccc(OC)cc12 (stereo partly drawn) | 11.2 nM | 45.3 nM | 56500 nM
CCCn1c(=O)c2[nH]c(C3CCCC3)nc2n(CCC)c1=O [1,3-DIPROPYL-8-CYCLOPENTYLXANTHINE [DPCPX]] | 764 nM | 346 nM | […]
CCCC(=O)N1CCN(C(=O)c2nc(-c3ccccc3)nc(CCC)c2C(=O)OCC)CC1C (stereo not drawn) | 1200 nM | 774 nM | > 10000 nM
COc1ccc(/C=C(/C#N)C(=O)Nc2cccc3ccccc23)cc1 | > 1160 nM | > 241 nM | > 10000 nM
Cc1ccn2c(NC(C)(C)CC(C)(C)C)c(-c3ccccc3OC(=O)C(C)(C)C)nc2c1 | 520 nM | < 7.9 nM | > 11100 nM
COC(=O)[C@@H]1C[C@H](NC(=O)c2[nH]c3ccc(Cl)cc3c2-c2ccccc2)CN1Cc1cc(OC)cc(OC)c1 | > 11500 nM | 786 nM | > 100000 nM
CC(C)CC(=O)OC1C(N2CCCCC2)c2c(ccc(C=CC(=O)N3CCCCC3)c2O)OC1(C)C (stereo not drawn) | 2600 nM | > 12300 nM | > 100000 nM
Clc1ccc(-c2nc3cc(Cl)cnc3[nH]2)cc1 | 565 nM | > 1250 nM | > 8520 nM
COc1cc2c(-c3cc(Br)ccc3O)nc3c(c(Cc4ccccc4)nn3-c3ccccc3)c2cc1OC | 146 nM | 145 nM | > 100000 nM
CCCCSc1ncnc2c1c(-c1ccccc1)cn2-c1cccc(F)c1 | > 1250 nM | > 974 nM | > 10000 nM
O=C(CSc1nc(-c2ccccc2Cl)ns1)Nc1ccc2c(c1)OCCO2 | 593 nM | 273 nM | > 100000 nM
CCOc1ccccc1NC(=O)CN1CCN(C(=O)c2ccco2)CC1 | 5460 nM | 12000 nM | > 100000 nM
COc1ccccc1-n1c(S)nnc1-c1ccccc1O | 276 nM | 295 nM | > 10000 nM
COc1cc(OC)c(OC)cc1CN1CCN(C(C)C)CC1 | > 1010 nM | > 1480 nM | > 10000 nM
O=C(Nc1cccc(C2=NCCN2)c1)c1ccc(C(=O)Nc2cccc(C3=NCCN3)c2)cc1 | 599 nM | 178 nM | > 10000 nM
CCC(/C=C1\Sc2ccc(OC)cc2N1CCCS(=O)(=O)O)=C\c1sc2ccc(OC)cc2[n+]1CCCS(=O)(=O)O | 473 nM | 1040 nM | 10000 nM
O=C(NCc1ccccc1C(F)(F)F)C1CC(O)CN1C(=O)Nc1ccccc1 (stereo not drawn) | > 1250 nM | 152 nM | > 10000 nM
Cc1noc(C)c1S(=O)(=O)N(CC(C)C)C(C(=O)NC(CN1CCCC1)c1ccccc1)c1ccccc1 (stereo not drawn) | 775 nM | 1660 nM | 2820 nM
O=C(CN1CCCC1)Nc1ccc(-c2nc3cc(NC(=O)CN4CCCC4)ccc3o2)cc1 | 2460 nM | 1360 nM | 36200 nM
CCCCCCN(C(=O)c1ccc2ccccc2c1)C(CC)c1nc2ccccc2c(=O)n1-c1ccc(F)cc1 (stereo not drawn) | 454 nM | 548 nM | > 10000 nM
CC(C)c1ccc2c(c1)c1c3c([n+](C)ccn32)CCC1 | 1720 nM | 2630 nM | 31800 nM
O=C(CCCOc1ccc(Cl)cc1Cl)NCCCn1ccnc1 | 480 nM | > 1250 nM | > 10000 nM
